From patent US8754212B2, “Process for the preparation of stable, amorphous calcium salt of (6S)-N(5)-methyl-5,6,7,8-tetrahydrofolic acid” (Cerbios-Pharma S.A., priority 2007, dated 2014)
Read-outs that look alike come from different tables or passages of the source.

How the values were obtained:
[1] = stored at 4° C.
Text: For the determination of the purity and of the ratio of the diastereoisomers a sample of the compound of formula IV was washed with 94% (v/v) aqueous ethanol and was then dried under reduced pressure.

[2] = stored at 25° C. under vacuum [2 mbar]

Row | HPLC purity (%) ([1]; time 0 months) | HPLC purity (%) ([1]; time 6 months) | HPLC assay (%) ([2]; time 0 months) | HPLC purity (%) ([2]; time 0 months) | HPLC assay (%) ([2]; time 1 month) | HPLC purity (%) ([2]; time 1 month) | HPLC assay (%) ([2]; time 2 months) | HPLC purity (%) ([2]; time 2 months) | HPLC assay (%) ([2]; time 3 months) | HPLC purity (%) ([2]; time 3 months) | HPLC assay (%) ([2]; time 6 months) | HPLC purity (%) ([2]; time 6 months) | HPLC assay (%) ([2]; time 9 months) | HPLC purity (%) ([2]; time 9 months) | Compound
1 | 96.45% | 96.66% | – | – | – | – | – | – | – | – | – | – | – | – | CN1c2c(nc(N)[nH]c2=O)NC[C@@H]1CNc1ccc(C(=O)N[C@@H](CCC(=O)O)C(=O)O)cc1 [formula IV, (6S)—N(5)-methyl-5,6,7,8-tetrahydrofolic acid]
2 | – | – | 99.0% | 98.7% | 98.8% | 98.7% | 99.8% | 98.9% | 100.2% | 98.8% | 99.9% | 98.5% | 100.7% | 98.9% | CN1c2c(nc(N)[nH]c2=O)NC[C@@H]1CNc1ccc(C(=O)NC(CCC(=O)[O-])C(=O)[O-])cc1.[Ca+2] (stereo partly drawn) [formula V, calcium salt of (6S)—N(5)-methyl-5,6,7,8-tetrahydrofolic acid]
